From patent US7033615B2, “Methods for regulating levels of zinc, cadmium and calcium in humans and for diagnosing, or screening for the risk of developing, diseases associated with abnormal levels of cadmium, zinc and calcium in body fluids and tissues” (CancEr2 Inc., priority 1999, dated 2006)

Tests used:
erythrocytes = assay: Blockage of calcium penetration into erythrocytes (serum calcium/erythrocyte calcium) in men given cadmium sulfate; assay type: in vivo; conditions: three men, CdSO4 1 mg daily
Protocol: (§1) Three healthy men with low PSA levels (below 2 ng/ml) volunteered for weekly blood and urine collection while a serial treatment of zinc, zinc with cadmium, and cadmium was administered. Treatment was given daily over a nine week period, followed by three weeks of continued sampling with no treatment. The zinc was administered in the form of zinc sulfate (Zn SO4) at a daily dosage of 75 mg. The cadmium was administered in the form of cadmium sulfate (CdSO4) at a daily dosage of 1 mg. Blood and urine were collected one day prior to the beginning of treatment for purposes of establishing a baseline level of chemicals in the blood and urine. Zinc salt administration began on the second day of the study and was administered each morning. On day 15, the cadmium salt administration was begun in the evening, with continued zinc salt administration continuing in the morning. Zinc administration was discontinued on day 43; cadmium administration continued through day 57. On days 58–78 of the study, neither zinc nor cadmium was administered, but blood and urine samples continued to be collected. Blood and urine were collected one day each week (days 1, 8, 15, etc.) for a total of 12 collection days over an 11 week period. […]
(§2) The second syringe contained no EDTA and was used to collect blood serum. […] All processed blood samples were stored in a −80° C. freezer until analyzed. […]

[1] = test system: rat tissue vs human tissue; conditions: rat tissue more sensitive than human tissue; cited from earlier work
[2] = Counter-exchange of serum cadmium to erythrocytes (erythrocyte Cd/(erythrocyte Cd+serum Cd)) in men given cadmium sulfate; assay type: in vivo; conditions: CdSO4 1 mg daily
Protocol: as §1, §2

O=S(=O)([O-])[O-].[Cd+2] [cadmium, cadmium sulfate]
increase of blockage to calcium penetration in each man (erythrocytes): 178–330%
average blockage of calcium penetration after cadmium treatment (mean+/-S.D.) (erythrocytes; increased from 114.79+/-21.135, p=0.0492): 314.001+/−150.942
sensitivity of rat tissue to cadmium relative to human tissue [1]: 30 times
increase of counter-exchange of serum cadmium to erythrocytes in each man ([2]; three healthy low-PSA men, minimum increase per man): ≥ 116%
average cadmium counter-exchange after cadmium treatment (mean+/-S.D.) ([2]; three men, increased from 0.311 +/-0.166): 0.466+/−0.077
